{"source": "paper PMC5797143", "about": "“Epigenetic modulation of inflammation and synaptic plasticity promotes resilience against stress in mice” (Nature Communications, 2018)", "key": {"[1]": {"test_system": "IL-6", "experiment": "LPS-induced IL-6 production in PBMCs (screening, dose response)", "format": "cell-based, mouse", "from_the_text": "BDPP contains a variety of polyphenols. Orally consumed polyphenols are typically bioavailable in various organs and tissues as metabolites (phase II polyphenol conjugates and phenolic acids) following xenobiotic metabolism and gastrointestinal microbiome fermentation. It is possible that some metabolites may counteract the positive effect of the others. Therefore, if supplied as BDPP, the overall benefits might be reduced due to potential ‘cancellation’ effects. By identifying individual metabolites that selectively target key pathological mechanisms (e.g., Rac1 and IL-6) we can greatly improve the efficacy. We and others recently identified 21 BDPP-derived phenolic metabolites that accumulate in blood and/or in the CNS (14 polyphenolic metabolites and 7 phenolic acids, Supplementary Table 1)[25], [28], [33], among which 14 are currently accessible, [34]. We initiated a high-throughput screen of these metabolites for their ability to modulate IL-6 and Rac1. Peripheral blood mononuclear cells (PBMCs) isolated from C57BL/6 mice were pretreated with plasma bioavailable metabolites (Supplementary Table 1) for 16 h followed by stimulation with lipopolysaccharide (LPS) for 16 h. […] In parallel studies, we screened 9 brain bioavailable metabolites using E18 MSN-enriched primary culture.\nWhole blood from mice was mixed with complete RPMI media and laid over the Ficoll-Paque Plus (GE Healthcare, Sweden), centrifuged at 2200 r.p.m. for 15 min. The buffy coat containing PBMCs were isolated, washed once with BEP (0.5% BSA, 2 mM EDTA in PBS) and plated out in a 24-well plate at 5 × 10^5/well in culture medium RPMI-1640 supplemented with 20% horse serum, 10% FBS, 2 mM L-glutamine, 25 mM Hepes and 100 U/ml penicillin/streptomycin. PBMCs were treated with various phenolic acids for 16 h and challenged with 7.5 µg/ml LPS. Supernatant was collected by centrifugation following 16 h of LPS stimulation and the levels of IL-6 were measured using the Mouse IL-6 Quantikine ELISA Kit from R & D System."}, "[2]": {"experiment": "Plasma protein binding, mouse plasma", "format": "in vitro ADME", "protocol": "Compound stability in mouse and human plasma and in mouse brain homogenate were conducted, [45]. Specifically, Mal-gluc or DHCA was incubated in duplicate with plasma at 37 °C and samples were taken at various time points and mixed with three volumes of ice-cold Stop Solution (methanol containing propranolol, diclofenac, or other internal standard). Samples were centrifuged to remove precipitated protein, and the supernatants were analyzed by LC/MS/MS to quantitate for remaining test compound. Data are converted to percentage remaining by dividing by the time zero concentration value. Data are fit to a first-order decay model to determine half-life. Plasma protein binding were conducted using both mouse and human plasma."}, "[3]": {"test_system": "Rac1 promoter histone H3 acetylation / H3K27 trimethylation", "experiment": "Quantitative ChIP along the Rac1 promoter in MSN-enriched primary cultures", "format": "cell-based, mouse", "from_the_text": "(§1) Stress-induced reduction of Rac1 expression is associated with a repressed chromatin state surrounding the promoter region of Rac1 in the NAc[11]. Since Mal-gluc can cross the BBB, we hypothesized that Mal-gluc may promote Rac1 expression, in part, by modulating chromatin acetylation. We first assessed the effect of Mal-gluc on HDACs that play key roles in chromatin deacetylation. […] Using site directed quantitative chromatin immunoprecipitation (qCHIP), we examined the permissive histone H3 acetylation (AcH3) in Mal-gluc treated MSN-enriched primary cultures.\nSite-directed qChIP was performed for pan-acH3 and H3K27me3 as described previously with modification. Neurons were washed once with PBS and crosslinked in 1% formaldehyde for 15 min, quenched by glycine at a final concentration of 125 mM. Neurons were then rinsed with cold PBS containing protease inhibitor cocktail (Sigma) and scraped off the plate. Cells were resuspended and sonicated with a Bioruptor (15 cycles, 30 sec on/off), which produces chromatin fragments ~350 bp in length. […] Levels of specific histone modifications along the Rac1 promoter were determined by measuring the amount of acetylated or methylated histone-associated DNA using quantitative real-time PCR as previously described."}, "[4]": {"test_system": "HDAC2 and other class I or class II HDACs", "experiment": "HDAC gene expression in MSN-enriched primary culture", "format": "cell-based, mouse", "conditions": "MSN-enriched primary cultures", "from_the_text": "as §1\nStriatal tissue from E18 was mechanically triturated and centrifuged. Neurons were seeded onto a poly-D-lysine-coated 12-well plate at 5 × 10^5 cells/well and cultured in Neurobasal medium, supplemented with 2% B27, 0.5 mM L-glutamine, and 1% penicillin-streptomycin (Gibco-BRL, Invitrogen). Following 4 days in vitro (DIV), 5 µM of Ara-c was used to inhibit the growth of glial cells. Following 10-day DIV culturing, neurons were treated with select brain-bioavailable polyphenol metabolites for 16 h, washed once with cold PBS and RNA was then isolated. […]\nTotal RNA from MSN-enriched cultures or brain NAc was isolated using the RNeasy Mini Kit (Qiagen, Valencia, CA, USA) and reverse transcribed. Gene expression was measured in four replicates by quantitative RT-PCR using Maxima SYBR Green master mix (Fermentas) in ABI Prism 7900HT. […]"}}}
{"molecule": "O=C(O)CCc1ccc(O)c(O)c1", "note": "[DHCA, 3(3,4-dihydroxy-phenyl) propionic acid]", "values": [{"measurement": "primary screening, LPS-induced IL-6 production", "setting": "[1]; 14 plasma bioavailable metabolites screened", "result": "most effective in reducing LPS-induced IL-6 production"}, {"measurement": "IC50", "setting": "[1]; Mus musculus, PBMC, PBMCs pretreated 16 h, then LPS 16 h, read-out: calculated IC50, reducing LPS-induced IL-6 production", "result": 17.7, "unit": "µM"}, {"measurement": "EC50", "setting": "[1]; Mus musculus, PBMC, dose response in PBMCs following LPS stimulation, read-out: EC50 (IL-6 response), Fig. 2b", "result": 17.7, "unit": "µM"}]}
{"molecule": "COc1cc(-c2[o+]c3cc(O)cc(O)c3cc2O[C@@H]2O[C@H](CO)[C@@H](O)[C@H](O)[C@H]2O)cc(OC)c1O", "note": "[Mal-gluc]", "values": [{"measurement": "Plasma protein binding, Mean fraction unbound (mouse plasma)", "setting": "[2]", "result": 55.70, "unit": "%"}, {"measurement": "repressive trimethylation of the Rac1 promoter (H3K27)", "setting": "[3]", "result": "no effect on the repressive trimethylation"}, {"measurement": "permissive histone H3 acetylation (AcH3) of Rac1", "setting": "[3]; compared to vehicle, across the region surveyed", "result": "significantly increased permissive acetylation"}, {"measurement": "expression of HDAC2", "setting": "[4]", "result": "significantly reduced the expression of HDAC2"}, {"measurement": "expression of other class I or class II HDACs", "setting": "[4]", "result": "no observable effect"}]}
